According to ChEMBL document CHEMBL6127052, “Discovery of membrane-targeting amphiphilic honokiol derivatives containing an oxazolethione moiety to combat methicillin-resistant Staphylococcus aureus (MRSA) infections” (Eur J Med Chem, 2024):
Calls of active or inactive are those of the source. No cut-off for these calls is given here.

Legend:
Staphylococcus aureus [1] = experiment: Induction of resistance development in Staphylococcus aureus ATCC 29213 assessed as increase in MIC at 0.5 times MIC treated for 4 days of consecutive passages; type: functional, organism-based; details: time 4.0 day
Staphylococcus aureus [2] = experiment: Induction of resistance development in Staphylococcus aureus ATCC 29213 assessed as fold increase in MIC at 0.5 times MIC treated for 18 days of consecutive passages; type: functional; details: time 18 day
Staphylococcus aureus [3] = experiment: Antibacterial activity against methicillin-resistant Staphylococcus aureus clinical isolate M13 by CLSI based micro-broth dilution method; type: functional
Escherichia coli = experiment: Antibacterial activity against Escherichia coli ATCC 25922 by CLSI based micro-broth dilution method; type: functional
[4] = Hemolytic activity in sheep erythrocytes incubated for 1 hr by absorbance based assay; type: toxicity, cell-based, Ovis aries, Erythrocyte
Staphylococcus aureus [5] = experiment: Antibacterial activity against methicillin-resistant Staphylococcus aureus clinical isolate M11 by CLSI based micro-broth dilution method; type: functional
Staphylococcus aureus [6] = experiment: Antibacterial activity against methicillin-resistant Staphylococcus aureus N315 by CLSI based micro-broth dilution method; type: functional
Staphylococcus aureus [7] = experiment: Antibacterial activity against methicillin-resistant Staphylococcus aureus clinical isolate M14 by CLSI based micro-broth dilution method; type: functional
[8] = Selectivity index, ratio of HC50 for hemolytic activity in sheep erythrocytes to MIC for antibacterial activity against Staphylococcus aureus ATCC 29213; type: toxicity, cell-based, RBC
Staphylococcus aureus [9] = experiment: Antibacterial activity against methicillin-resistant Staphylococcus aureus clinical isolate M23 by CLSI based micro-broth dilution method; type: functional
Staphylococcus aureus [10] = experiment: Antibacterial activity against Staphylococcus aureus ATCC 29213 by CLSI based micro-broth dilution method; type: functional
Staphylococcus aureus [11] = experiment: Antibacterial activity against methicillin-resistant Staphylococcus aureus clinical isolate M17 by CLSI based micro-broth dilution method; type: functional
Staphylococcus aureus [12] = experiment: Antibacterial activity against methicillin-resistant Staphylococcus aureus clinical isolate M16 by CLSI based micro-broth dilution method; type: functional
Staphylococcus aureus [13] = experiment: Antibacterial activity against methicillin-resistant Staphylococcus aureus clinical isolate M12 by CLSI based micro-broth dilution method; type: functional
Staphylococcus aureus [14] = experiment: Antibacterial activity against methicillin-resistant Staphylococcus aureus clinical isolate M21 by CLSI based micro-broth dilution method; type: functional
Staphylococcus aureus [15] = experiment: Antibacterial activity against methicillin-resistant Staphylococcus aureus clinical isolate M20 by CLSI based micro-broth dilution method; type: functional
Staphylococcus aureus [16] = experiment: Antibacterial activity against methicillin-resistant Staphylococcus aureus clinical isolate M22 by CLSI based micro-broth dilution method; type: functional

With `CCn1cc(C(=O)O)c(=O)c2cc(F)c(N3CCNCC3)cc21` [NORFLOXACIN] the Activity (Staphylococcus aureus [1]) was “Active” and the “fold change (FC)” value (Staphylococcus aureus [2]) was 128.
With `C=CCc1cc(-c2ccc(OCCC[N+](C)(C)CC(=O)NCCCC)c(CC=C)c2)c2oc(=S)n(Cc3ccc(F)c(F)c3)c2c1.[Br-]` the MIC (Staphylococcus aureus [3]) was 2 µg/mL, the MIC (Escherichia coli) was > 128 µg/mL and the HC50 at 1 h [4] was 68.4 µg/mL. The MIC (Staphylococcus aureus [5]) was 4 µg/mL, the MIC (Staphylococcus aureus [6]) was 16 µg/mL and the MIC (Staphylococcus aureus [7]) was 2 µg/mL. It also gave a selectivity ratio [8] of 10.4, an MIC (Staphylococcus aureus [9]) of 4 µg/mL and an MIC (Staphylococcus aureus [10]) of 4 µg/mL. It also gave an MIC (Staphylococcus aureus [11]) of 4 µg/mL, an MIC (Staphylococcus aureus [12]) of 4 µg/mL and an MIC (Staphylococcus aureus [13]) of 4 µg/mL. For the same molecule, the MIC (Staphylococcus aureus [14]) was 4 µg/mL, the MIC (Staphylococcus aureus [15]) was 4 µg/mL and the MIC (Staphylococcus aureus [16]) was 4 µg/mL.
For `C=CCc1cc(-c2ccc(OCCC[N+](C)(C)CC(=O)NCCCC)c(CC=C)c2)c2oc(=S)n(Cc3ccccc3Br)c2c1.[Br-]`, the MIC (Staphylococcus aureus [3]) was 128 µg/mL, the MIC (Escherichia coli) was > 128 µg/mL and the HC50 at 1 h [4] was > 160 µg/mL. For the same molecule, the MIC (Staphylococcus aureus [5]) was 64 µg/mL, the MIC (Staphylococcus aureus [6]) was 128 µg/mL and the MIC (Staphylococcus aureus [7]) was 128 µg/mL. The selectivity ratio [8] was > 1.3, the MIC (Staphylococcus aureus [9]) was 64 µg/mL and the MIC (Staphylococcus aureus [10]) was 128 µg/mL. For the same molecule, the MIC (Staphylococcus aureus [11]) was 64 µg/mL, the MIC (Staphylococcus aureus [12]) was 64 µg/mL and the MIC (Staphylococcus aureus [13]) was 16 µg/mL. It also gave an MIC (Staphylococcus aureus [14]) of 32 µg/mL, an MIC (Staphylococcus aureus [15]) of 64 µg/mL and an MIC (Staphylococcus aureus [16]) of 32 µg/mL.
In the case of `C=CCc1cc(-c2ccc(OCCC[N+](C)(C)CC(=O)NCCCC)c(CC=C)c2)c2oc(=S)n(Cc3ccc(OC)cc3)c2c1.[Br-]`, the MIC (Staphylococcus aureus [3]) is reported as 4 µg/mL, the MIC (Escherichia coli) is reported as > 128 µg/mL and the HC50 at 1 h [4] is reported as 57.4 µg/mL. For the same molecule, the MIC (Staphylococcus aureus [5]) was 2 µg/mL, the MIC (Staphylococcus aureus [6]) was 32 µg/mL and the MIC (Staphylococcus aureus [7]) was 2 µg/mL. The selectivity ratio [8] was 1.8, the MIC (Staphylococcus aureus [9]) was 8 µg/mL and the MIC (Staphylococcus aureus [10]) was 32 µg/mL. The MIC (Staphylococcus aureus [11]) was 16 µg/mL, the MIC (Staphylococcus aureus [12]) was 4 µg/mL and the MIC (Staphylococcus aureus [13]) was 2 µg/mL. For the same molecule, the MIC (Staphylococcus aureus [14]) was 2 µg/mL, the MIC (Staphylococcus aureus [15]) was 2 µg/mL and the MIC (Staphylococcus aureus [16]) was 8 µg/mL.
In the case of `C=CCc1cc(-c2ccc(OCCC[N+](C)(C)CC(=O)NCCCC)c(CC=C)c2)c2oc(=S)n(Cc3ccc(Cl)cc3F)c2c1.[Br-]`, the MIC (Staphylococcus aureus [3]) is reported as > 128 µg/mL, the MIC (Escherichia coli) is reported as > 128 µg/mL and the HC50 at 1 h [4] is reported as > 160 µg/mL. For the same molecule, the MIC (Staphylococcus aureus [5]) was > 128 µg/mL, the MIC (Staphylococcus aureus [6]) was 128 µg/mL and the MIC (Staphylococcus aureus [7]) was > 128 µg/mL. The selectivity ratio [8] was 1.3, the MIC (Staphylococcus aureus [9]) was > 128 µg/mL and the MIC (Staphylococcus aureus [10]) was > 128 µg/mL. The MIC (Staphylococcus aureus [11]) was > 128 µg/mL, the MIC (Staphylococcus aureus [12]) was > 128 µg/mL and the MIC (Staphylococcus aureus [13]) was > 128 µg/mL. For the same molecule, the MIC (Staphylococcus aureus [14]) was > 128 µg/mL, the MIC (Staphylococcus aureus [15]) was > 128 µg/mL and the MIC (Staphylococcus aureus [16]) was > 128 µg/mL.
With `C=CCc1cc(-c2ccc(OCCC[N+](C)(C)CC(=O)NCCCC)c(CC=C)c2)c2oc(=S)n(Cc3ccc(Cl)cc3Cl)c2c1.[Br-]` the MIC (Staphylococcus aureus [3]) was > 128 µg/mL, the MIC (Escherichia coli) was > 128 µg/mL and the HC50 at 1 h [4] was > 160 µg/mL. The MIC (Staphylococcus aureus [5]) was > 128 µg/mL, the MIC (Staphylococcus aureus [6]) was 128 µg/mL and the MIC (Staphylococcus aureus [7]) was > 128 µg/mL. The selectivity ratio [8] was 1.3, the MIC (Staphylococcus aureus [9]) was > 128 µg/mL and the MIC (Staphylococcus aureus [10]) was > 128 µg/mL. For the same molecule, the MIC (Staphylococcus aureus [11]) was > 128 µg/mL, the MIC (Staphylococcus aureus [12]) was > 128 µg/mL and the MIC (Staphylococcus aureus [13]) was > 128 µg/mL. For the same molecule, the MIC (Staphylococcus aureus [14]) was > 128 µg/mL, the MIC (Staphylococcus aureus [15]) was > 128 µg/mL and the MIC (Staphylococcus aureus [16]) was > 128 µg/mL.
With `C=CCc1cc(-c2ccc(OCCC[N+](C)(C)CC(=O)NCCCC)c(CC=C)c2)c2oc(=S)n(Cc3cc(Br)cc(Br)c3)c2c1.[Br-]` the MIC (Staphylococcus aureus [3]) was 128 µg/mL, the MIC (Escherichia coli) was > 128 µg/mL and the HC50 at 1 h [4] was > 160 µg/mL. For the same molecule, the MIC (Staphylococcus aureus [5]) was 32 µg/mL, the MIC (Staphylococcus aureus [6]) was 64 µg/mL and the MIC (Staphylococcus aureus [7]) was 128 µg/mL. For the same molecule, the selectivity ratio [8] was 1.3, the MIC (Staphylococcus aureus [9]) was 64 µg/mL and the MIC (Staphylococcus aureus [10]) was > 128 µg/mL. It also gave an MIC (Staphylococcus aureus [11]) of 64 µg/mL, an MIC (Staphylococcus aureus [12]) of 64 µg/mL and an MIC (Staphylococcus aureus [13]) of 64 µg/mL. The MIC (Staphylococcus aureus [14]) was 32 µg/mL, the MIC (Staphylococcus aureus [15]) was 32 µg/mL and the MIC (Staphylococcus aureus [16]) was 64 µg/mL.
With `C=CCc1cc(-c2ccc(OCCC[N+](C)(C)CC(=O)NCCCC)c(CC=C)c2)c2oc(=S)n(Cc3cc(Br)ccc3F)c2c1.[Br-]` the MIC (Staphylococcus aureus [3]) was 16 µg/mL, the MIC (Escherichia coli) was > 128 µg/mL and the HC50 at 1 h [4] was > 160 µg/mL. It also gave an MIC (Staphylococcus aureus [5]) of 8 µg/mL, an MIC (Staphylococcus aureus [6]) of 16 µg/mL and an MIC (Staphylococcus aureus [7]) of 8 µg/mL. For the same molecule, the selectivity ratio [8] was > 10, the MIC (Staphylococcus aureus [9]) was 16 µg/mL and the MIC (Staphylococcus aureus [10]) was 16 µg/mL. It also gave an MIC (Staphylococcus aureus [11]) of 32 µg/mL, an MIC (Staphylococcus aureus [12]) of 8 µg/mL and an MIC (Staphylococcus aureus [13]) of 8 µg/mL. The MIC (Staphylococcus aureus [14]) was 8 µg/mL, the MIC (Staphylococcus aureus [15]) was 8 µg/mL and the MIC (Staphylococcus aureus [16]) was 16 µg/mL.
In the case of `C=CCc1cc(-c2ccc(OCCC[N+](C)(C)CC(=O)NCCCC)c(CC=C)c2)c2oc(=S)n(Cc3c(Cl)cccc3Cl)c2c1.[Br-]`, the MIC (Staphylococcus aureus [3]) is reported as 16 µg/mL, the MIC (Escherichia coli) is reported as > 128 µg/mL and the HC50 at 1 h [4] is reported as 400 µg/mL. The MIC (Staphylococcus aureus [5]) was 8 µg/mL, the MIC (Staphylococcus aureus [6]) was 32 µg/mL and the MIC (Staphylococcus aureus [7]) was 16 µg/mL. For the same molecule, the selectivity ratio [8] was 25, the MIC (Staphylococcus aureus [9]) was 8 µg/mL and the MIC (Staphylococcus aureus [10]) was 16 µg/mL. The MIC (Staphylococcus aureus [11]) was 16 µg/mL, the MIC (Staphylococcus aureus [12]) was 8 µg/mL and the MIC (Staphylococcus aureus [13]) was 4 µg/mL. The MIC (Staphylococcus aureus [14]) was 8 µg/mL, the MIC (Staphylococcus aureus [15]) was 8 µg/mL and the MIC (Staphylococcus aureus [16]) was 32 µg/mL.
With `C=CCc1cc(-c2ccc(OCCC[N+](C)(C)CC(=O)NCCCC)c(CC=C)c2)c2oc(=S)n(Cc3ccc(Cl)cc3)c2c1.[Br-]` the MIC (Staphylococcus aureus [3]) was 8 µg/mL, the MIC (Escherichia coli) was > 128 µg/mL and the HC50 at 1 h [4] was 519 µg/mL. It also gave an MIC (Staphylococcus aureus [5]) of 4 µg/mL, an MIC (Staphylococcus aureus [6]) of 32 µg/mL and an MIC (Staphylococcus aureus [7]) of 16 µg/mL. The selectivity ratio [8] was 32.5, the MIC (Staphylococcus aureus [9]) was 16 µg/mL and the MIC (Staphylococcus aureus [10]) was 16 µg/mL. The MIC (Staphylococcus aureus [11]) was 8 µg/mL, the MIC (Staphylococcus aureus [12]) was 8 µg/mL and the MIC (Staphylococcus aureus [13]) was 4 µg/mL. It also gave an MIC (Staphylococcus aureus [14]) of 4 µg/mL, an MIC (Staphylococcus aureus [15]) of 4 µg/mL and an MIC (Staphylococcus aureus [16]) of 8 µg/mL.
With `C=CCc1cc(-c2ccc(OCCC[N+](C)(C)CC(=O)NCCCC)c(CC=C)c2)c2oc(=S)n(Cc3ccc(Cl)c(F)c3)c2c1.[Br-]` the MIC (Staphylococcus aureus [3]) was 16 µg/mL, the MIC (Escherichia coli) was > 128 µg/mL and the HC50 at 1 h [4] was > 160 µg/mL. It also gave an MIC (Staphylococcus aureus [5]) of 8 µg/mL, an MIC (Staphylococcus aureus [6]) of 32 µg/mL and an MIC (Staphylococcus aureus [7]) of 16 µg/mL. For the same molecule, the selectivity ratio [8] was > 5, the MIC (Staphylococcus aureus [9]) was 8 µg/mL and the MIC (Staphylococcus aureus [10]) was 32 µg/mL. The MIC (Staphylococcus aureus [11]) was 128 µg/mL, the MIC (Staphylococcus aureus [12]) was 8 µg/mL and the MIC (Staphylococcus aureus [13]) was 8 µg/mL. It also gave an MIC (Staphylococcus aureus [14]) of 8 µg/mL, an MIC (Staphylococcus aureus [15]) of 8 µg/mL and an MIC (Staphylococcus aureus [16]) of 64 µg/mL.
